Reference: patent publication US5055613A, “Metabolites of pentanedioic acid derivatives” (G. D. Searle & Co., priority 1988, dated 1991)

Key:
fed hepatocytes [1] = assay: Glucose release, lactate and pyruvate (metabolites) in isolated fed hepatocytes; format: cell-based, rat; settings: 0.5 mM; for Pyruvate: No Addition 0.186 ± 0.040; for Lactate: No Addition 0.317 ± 0.095
Description: (§1) Hepatocytes are prepared from ad lib fed rats or 8-hour fasted rats by the method of Berry and Friend (1969) with minor modifications (McCune and Harris, 1979 J. Biol. Chem. 254,10095-10101.) Lean female rats (200-300 g) are ad lib fed and on a 8:00 a.m.-8:00 p.m. light cycle. The cells are isolated between 9:00-10:00 a.m., to compensate for any diurnal rhythms such as glycogen depletion.
(§2) The cells are suspended in 2 mls of Krebs-Henseleit buffer supplemented with 2% BSA (essentially fatty acid free and dialyzed) under an atmosphere of 95% O2, 5% CO2 in stoppered 25 ml Erlenmeyer flasks. Incubations were conducted in a shaking water bath at 37° C. for appropriate times. Cells for fatty acid and cholesterol synthesis were treated with […] of H2 O(10mCi/ml) after 30 minutes of pre-incubation and stopped at 60 minutes.
Assay of metabolites: Cells are terminated with HClO4 (0.1 ml of 60%) and treated as described previously; McCune et al., 1981 Methods of Enzymology 72, 557-559). The metabolites in the extracts are measured spectrophotometrically by enzymatic methods, according to the methods of Hohorst et al. (1959 Biochem. Z., 332,18-46) for pyruvate and lactate, Williamson et al. (1962) for acetoacetate and beta-hydroxybutyrate, Slein (1965) for glucose, Michal and Bergmeyer (1974) for acetyl-CoA, McCune, et al. (ibid) for glycogen, Mollering and Gruber (1966 Anal. Biochem. 17, 369-379) for citrate, and Lambrecht and Trautschold (1974 Methods of Enzymatic Analysis, 2101 2109) for ATP.
(§3) Various compounds of the present invention were added to various concentrations to the hepatocytes and incubated for a short period of time. The effect of the compound was evaluated on cholesterol, fatty acid and glucose synthesis as well on other metabolites in the cell.

fed hepatocytes [2] = assay: Fatty acid and cholesterol synthesis in isolated fed hepatocytes; format: cell-based, rat; settings: 0.5 mM; for Cholesterol Synthesis: No Addition 0.013 ± 0.002; for Fatty Acid Synthesis: No Addition 0.024 ± 0.004
Description: as §1, §2
Determination of cholesterol and fatty acid synthesis: The rate of fatty acid synthesis and cholesterol synthesis, expressed as moles of acetate equivalents/g wet weight of hepatocytes are determined by the incorporation of H2 O into total lipid, and extracted by the methods of Kates (1972 Tech. of Lipidology, 349, 363) and Harris (1975 Arch. Biochem. Biophys. 169, 168-180). Calculations are done according to Jungas (1968 Biochemistry 7, 3708-3717).
as §3

Structure (SMILES) | Pyruvate (fed hepatocytes [1]) | Lactate (fed hepatocytes [1]) | Cholesterol Synthesis (fed hepatocytes [2]) | Fatty Acid Synthesis (fed hepatocytes [2])
CC(C)(CCCCCCCCCCCC(O)(CC(=O)O)CC(=O)O)C(=O)O [Example 11, 3-(12-Carboxy-12-methyl-tridecyl)-3-hydroxy glutaric acid] | 0.202 ± 0.028 mmoles/ml incubation medium | 0.437 ± 0.104 mmoles/ml incubation medium | 0.002 ± 0.001 mmoles/min/gm wet weight | 0.003 ± 0.001 mmoles/min/gm wet weight
CC(C)(CO)CCCCCCCCCCCC(O)(CC(=O)O)CC(=O)O [Example 14, 3-(13-Hydroxy-12,12-dimethyl-tridecyl)-3-hydroxy glutaric acid] | 0.185 ± 0.042 mmoles/ml incubation medium | 0.400 ± 0.091 mmoles/ml incubation medium | 0.004 ± 0.001 mmoles/min/gm wet weight | 0.003 ± 0.001 mmoles/min/gm wet weight
COC(=O)C(C)(C)CCCCCCCCCCCC(O)(CC(=O)O)CC(=O)O [Example 10, 3-(12-Carbomethoxy-12-methyl-tridecyl)-3-hydroxy glutaric acid] | 0.220 ± 0.031 mmoles/ml incubation medium | 0.477 ± 0.084 mmoles/ml incubation medium | 0.003 ± 0.001 mmoles/min/gm wet weight | 0.003 ± 0.001 mmoles/min/gm wet weight
CC(C)(C)CCCCCCCCCCCC(O)(CC(=O)O)CC(=O)O [Prior Art Compound, 3hydroxy-3-[12,12dimethyltridecyl]glutaric acid, reference compound] | 0.110 ± 0.013 mmoles/ml incubation medium | 0.383 ± 0.085 mmoles/ml incubation medium | 0.010 ± 0.002 mmoles/min/gm wet weight | 0.010 ± 0.002 mmoles/min/gm wet weight
